Consider 1 molecule from publication PMC3365763 (The Journal of Biological Chemistry, 2012).

This assay addresses T1, TG2 (transglutaminase-2, transglutaminase type 2) (Homo sapiens, UniProt P21980, K598S/K600S/K602S/R601S).
T1 sequence (P21980 1-687 K598S/K600S/R601S/K602S): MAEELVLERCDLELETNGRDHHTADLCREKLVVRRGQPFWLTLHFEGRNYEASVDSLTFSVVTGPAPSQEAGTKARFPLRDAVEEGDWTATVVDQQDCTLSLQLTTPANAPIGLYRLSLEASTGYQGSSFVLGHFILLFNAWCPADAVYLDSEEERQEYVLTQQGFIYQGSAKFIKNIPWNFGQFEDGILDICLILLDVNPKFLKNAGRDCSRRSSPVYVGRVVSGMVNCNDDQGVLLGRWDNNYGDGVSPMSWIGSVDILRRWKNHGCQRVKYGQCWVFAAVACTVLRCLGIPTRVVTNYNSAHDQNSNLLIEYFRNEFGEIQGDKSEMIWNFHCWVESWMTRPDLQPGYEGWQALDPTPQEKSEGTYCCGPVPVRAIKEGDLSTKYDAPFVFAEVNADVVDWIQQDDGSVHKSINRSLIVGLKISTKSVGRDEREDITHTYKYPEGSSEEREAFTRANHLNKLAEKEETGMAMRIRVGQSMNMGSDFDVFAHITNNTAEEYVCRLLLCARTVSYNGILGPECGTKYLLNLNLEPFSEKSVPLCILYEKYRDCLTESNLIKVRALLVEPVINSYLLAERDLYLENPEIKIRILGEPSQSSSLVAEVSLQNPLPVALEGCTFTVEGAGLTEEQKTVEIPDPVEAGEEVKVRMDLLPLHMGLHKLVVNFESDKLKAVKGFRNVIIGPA
In kind it is biochemical.

As a reminder, the IC50 is the concentration at which inhibition is half-maximal. `Nc1nc2c(ncn2[C@@H]2O[C@H](COP(=O)(O)OP(=O)(O)OP(=O)(O)O)[C@@H](O)[C@H]2O)c(=O)[nH]1` [GTP] gave an IC50 of 148 ± 26 µM.
